From patent US11472808B2, “Substituted pyrrolo[1,2-c]pyrimidines as hepatitis B antiviral agents” (Enanta Pharmaceuticals, Inc., priority 2019, dated 2022)

Experiments:
[1] = Compound toxicity, ATPLite total ATP levels; type: cell-based; details: human, HepG2 cells; concentration reducing total ATP levels by 50% relative to no drug controls; ATPLite three days after compound addition
Experimental: Compound toxicity is evaluated by seeding cells at 15,000 cells/well and treating with compound as described above.

HBV = assay: HepAD38 anti-HBV assay: reduction of viral product accumulation (virion DNA qPCR, HBsAg/HBeAg ELISA); type: cell-based; details: Hepatitis B virus, 120 h; HepAD38 cells; concentration reducing viral product accumulation by 50% relative to no drug controls; harvest five days after compound addition; read-out: HepAD38 EC50
In short: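 Tetracycline-free HepAD38 cells treated 5 days with compound (1:200 DMSO dilution), or 8 days with media and compound refreshed on d2 and d5. Virion DNA quantified by qPCR; HBsAg or HBeAg by ELISA. EC50 is the concentration reducing viral product accumulation 50% versus no-drug controls.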

| SMILES | CC50 at 3 days [1] [µM] | EC50 (HBV) [µM] |
| --- | --- | --- |
| O=S(=O)(N[C@H]1CC2=C(c3ccn(C(F)F)n3)[C@H](c3ccc(F)cc3Cl)N=C(c3nccs3)N2C1)c1cccc(C(O)c2ccccn2)c1 (some centres unmarked) [Example 339] | > 25 | < 0.1 |
| O=S(=O)(N[C@H]1CC2=C(c3ccn(C(F)F)n3)[C@H](c3ccc(F)cc3Cl)N=C(c3nccs3)N2C1)c1ccc(S(=O)(=O)C(F)F)cc1 [Example 340] | > 25 | < 0.1 |
| CC(C)[C@H](NS(=O)(=O)N[C@H]1CC2=C(c3ccn(C(F)F)n3)[C@H](c3ccc(F)cc3Cl)N=C(c3nccs3)N2C1)c1ccccn1 [Example 342] | > 25 | < 0.1 |
| O=S(=O)(N[C@H]1CC2=C(c3ccn(C(F)F)n3)[C@H](c3ccc(F)cc3Cl)N=C(c3nccs3)N2C1)N[C@H](c1ccccn1)C1CC1 [Example 353] | > 25 | < 0.1 |
| CS(=O)(=O)Nc1ccc(S(=O)(=O)N[C@H]2CC3=C(c4ccn(C(F)F)n4)[C@H](c4ccc(F)cc4Cl)N=C(c4nccs4)N3C2)cc1 [Example 357] | > 25 | < 0.1 |
| O=C1NC2(CO1)CN(S(=O)(=O)N[C@H]1CC3=C(c4ccn(C(F)F)n4)[C@H](c4ccc(F)cc4Cl)N=C(c4nccs4)N3C1)C2 [Example 358] | > 25 | < 0.1 |
| CC(C)C[C@H](NS(=O)(=O)N[C@H]1CC2=C(c3ccn(C(F)F)n3)[C@H](c3ccc(F)cc3Cl)N=C(c3nccs3)N2C1)c1ccccn1 [Example 359] | > 25 | < 0.1 |
| O=S(=O)(NC(c1ccccn1)c1ccccn1)N[C@H]1CC2=C(c3ccn(C(F)F)n3)[C@H](c3ccc(F)cc3Cl)N=C(c3nccs3)N2C1 [Example 361] | > 25 | < 0.1 |
| O=S(=O)(N[C@H]1CC2=C(c3ccn(C(F)F)n3)[C@H](c3ccc(F)cc3Cl)N=C(c3nccs3)N2C1)c1ncc[nH]1 [Example 362] | > 25 | < 0.1 |
| C[C@]1(NS(=O)(=O)C2CCC(O)(c3ccccn3)CC2)CC2=C(c3ccn(C(F)F)n3)[C@H](c3ccc(F)cc3Cl)N=C(c3nccs3)N2C1 (some centres unmarked) [Example 363] | 10 to 25 | < 0.1 |
| O=S(=O)(N[C@H]1CC2=C(c3ccn(C(F)F)n3)[C@H](c3ccc(F)cc3Cl)N=C(c3nccs3)N2C1)c1ccccn1 [Example 364] | > 25 | < 0.1 |
| O=S(=O)(N[C@H]1CC2=C(c3ccn(C(F)F)n3)[C@H](c3ccc(F)cc3Cl)N=C(c3nccs3)N2C1)c1cccnc1 [Example 365] | > 25 | < 0.1 |
| O=S(=O)(N[C@H]1CC2=C(c3ccn(C(F)F)n3)[C@H](c3ccc(F)cc3Cl)N=C(c3nccs3)N2C1)c1ccccc1 [Example 367] | > 25 | < 0.1 |
| O=S(=O)(N[C@H]1CC2=C(c3ccn(C(F)F)n3)[C@H](c3ccc(F)cc3Cl)N=C(c3nccs3)N2C1)c1ccc(Br)cn1 [Example 368] | > 25 | < 0.1 |
| CCOC(=O)CC1(S(=O)(=O)N[C@H]2CC3=C(c4ccn(C(F)F)n4)[C@H](c4ccc(F)cc4Cl)N=C(c4nccs4)N3C2)CC1 [Example 369] | > 25 | < 0.1 |
| O=S(=O)(N[C@H]1CC2=C(c3ccn(C(F)F)n3)[C@H](c3ccc(F)cc3Cl)N=C(c3nccs3)N2C1)[C@H]1C[C@H](O)C1 [Example 370] | > 25 | < 0.1 |
| O=S(=O)(N[C@H]1CC2=C(c3ccn(C(F)F)n3)[C@H](c3ccc(F)cc3Cl)N=C(c3nccs3)N2C1)[C@H]1C[C@](O)(c2ccccn2)C1 [Example 371] | 10 to 25 | < 0.1 |
| O=S1(=O)NCCN1[C@H]1CC2=C(c3ccn(C(F)F)n3)[C@H](c3ccc(F)cc3Cl)N=C(c3nccs3)N2C1 [Example 376] | > 25 | < 0.1 |
| O=S(=O)(N[C@H]1CC2=C(c3ccn(C(F)F)n3)[C@H](c3ccc(F)cc3Cl)N=C(c3nccs3)N2C1)C1(c2ccccn2)CC1 [Example 377] | > 25 | < 0.1 |

| SMILES | CC50 at 3 days [1] [µM] | EC50 (HBV) [µM] |
| --- | --- | --- |
| O=S(=O)(N[C@H]1CC2=C(c3ccn(C(F)F)n3)[C@H](c3ccc(F)cc3Cl)N=C(c3nccs3)N2C1)c1cccc(-c2cccnc2)n1 [Example 378] | > 25 | < 0.1 |
| O=S(=O)(N[C@H]1CC2=C(c3ccn(C(F)F)n3)[C@H](c3ccc(F)cc3Cl)N=C(c3nccs3)N2C1)C1(CCO)CC1 [Example 379] | 10 to 25 | < 0.1 |
| O=S(=O)(N[C@H]1CC2=C(c3ccn(C(F)F)n3)[C@H](c3ccc(F)cc3Cl)N=C(c3nccs3)N2C1)c1ccc([C@H]2CC[C@H](O)CC2)cc1 [Example 381] | 10 to 25 | < 0.1 |
| Nc1cccc(S(=O)(=O)N[C@H]2CC3=C(c4ccn(C(F)F)n4)[C@H](c4ccc(F)cc4Cl)N=C(c4nccs4)N3C2)n1 [Example 383] | > 25 | < 0.1 |
| O=S(=O)(N[C@H]1CC2=C(c3ccn(C(F)F)n3)[C@H](c3ccc(F)cc3Cl)N=C(c3nccs3)N2C1)c1ccc([C@H]2CC[C@](O)(c3ccccn3)CC2)cc1 [Example 385] | > 25 | < 0.1 |
| O=S(=O)(N[C@H]1CC2=C(c3ccn(C(F)F)n3)[C@H](c3ccc(F)cc3Cl)N=C(c3nccs3)N2C1)c1cccc(F)c1 [Example 386] | 10 to 25 | < 0.1 |
| O=S(=O)(N[C@H]1CC2=C(c3ccn(C(F)F)n3)[C@H](c3ccc(F)cc3Cl)N=C(c3nccs3)N2C1)c1ccccc1F [Example 387] | > 25 | < 0.1 |
| O=S(=O)(N[C@H]1CC2=C(c3ccn(C(F)F)n3)[C@H](c3ccc(F)cc3Cl)N=C(c3nccs3)N2C1)c1ccc(F)cc1F [Example 388] | > 25 | < 0.1 |
| O=S(=O)(N[C@H]1CC2=C(c3ccn(C(F)F)n3)[C@H](c3ccc(F)cc3Cl)N=C(c3nccs3)N2C1)c1ccc(Br)cc1 [Example 389] | > 25 | < 0.1 |
| Cn1ccc(S(=O)(=O)N[C@H]2CC3=C(c4ccn(C(F)F)n4)[C@H](c4ccc(F)cc4Cl)N=C(c4nccs4)N3C2)n1 [Example 394] | > 25 | < 0.1 |
| Cc1ccc(S(=O)(=O)N[C@H]2CC3=C(c4ccn(C(F)F)n4)[C@H](c4ccc(F)cc4Cl)N=C(c4nccs4)N3C2)cn1 [Example 401] | > 25 | < 0.1 |
| O=S(=O)(N[C@H]1CC2=C(c3ccn(C(F)F)n3)[C@H](c3ccc(F)cc3Cl)N=C(c3nccs3)N2C1)c1ccc(-c2cccnc2)cn1 [Example 403] | > 25 | < 0.1 |
| C[C@]1(O)CC[C@@H](c2ccc(S(=O)(=O)N[C@H]3CC4=C(c5ccn(C(F)F)n5)[C@H](c5ccc(F)cc5Cl)N=C(c5nccs5)N4C3)cc2)CC1 [Example 410] | > 25 | < 0.1 |
| C[C@]1(O)CC[C@H](c2ccc(S(=O)(=O)N[C@H]3CC4=C(c5ccn(C(F)F)n5)[C@H](c5ccc(F)cc5Cl)N=C(c5nccs5)N4C3)cc2)CC1 [Example 411] | 10 to 25 | < 0.1 |
| O=C1NC[C@@H](CNC(=O)c2cccc(S(=O)(=O)N[C@H]3CC4=C(c5ccn(C(F)F)n5)[C@H](c5ccc(F)cc5Cl)N=C(c5nccs5)N4C3)c2)O1 [Example 420] | > 25 | < 0.1 |
| O=C1NC[C@H](CNC(=O)c2cccc(S(=O)(=O)N[C@H]3CC4=C(c5ccn(C(F)F)n5)[C@H](c5ccc(F)cc5Cl)N=C(c5nccs5)N4C3)c2)O1 [Example 421] | > 25 | < 0.1 |
| O=S(=O)(N[C@H]1CC2=C(c3ccn(C(F)F)n3)[C@H](c3ccc(F)cc3Cl)N=C(c3nccs3)N2C1)C1(C[C@@H](O)CO)CC1 [Example 424] | > 25 | < 0.1 |
| O=C(O)[C@H]1CC[C@H](c2ccc(S(=O)(=O)N[C@H]3CC4=C(c5ccn(C(F)F)n5)[C@H](c5ccc(F)cc5Cl)N=C(c5nccs5)N4C3)cc2)CC1 [Example 426] | > 25 | < 0.1 |
